Values of other authors in PMC8515052, “PepVAE: Variational Autoencoder Framework for Antimicrobial Peptide Generation and Activity Prediction” (Frontiers in Microbiology, 2021).

Test system: Acinetobacter baumannii
Settings: murine model of infection; ref Stokes et al., 2020
Description: Many pathogenic bacteria are resistant to the majority of, if not all, antibiotics that are currently being isolated using traditional methods. Because of this, generation of new antimicrobials is critical for survival in the post-antibiotic era ([Brown and Wright, 2016]). At the current rate, annual global death due to antibiotic resistance is projected to exceed 10 million by 2050, costing 100 trillion USD ([O’Neill, 2014]); however, investment has not kept up with the task with very few antibiotics currently in clinical development and far fewer likely to be approved for treatment of patien ...

Nc1nnc(Sc2ncc([N+](=O)[O-])s2)s1 [halicin]
activity against Acinetobacter baumannii: displays activity
